The values that follow come from patent publication US7169932B2 (priority 2001, dated 2007).

pEC50, pKi: −log10 of the molar value. Like-named read-outs stand apart in the source and are kept apart here.

For one experiment, the target named is T1, HIV-1 protease (Q7S) (Human immunodeficiency virus type 1 group M subtype B, UniProt P04585, Q495S).
T1 construct: made in house
Kind of experiment: HIV-1 Protease RET Assay. The format is biochemical. The following applies: for pKi: Ki, table of drawn compounds, unit inferred; for Ki: Ave. Ki (nM), RET assay, Q7S enzyme, pH 4.8, 37 C. As for the experimental part: Ki's for the inhibitors of HIV-1 protease were determined using a resonance energy transfer (RET) assay. […] This enzyme is first partially purified as inclusion bodies from cell lysate. It is then solublized in 8M urea and passed through a Q-Sepharose column (Pharmacia) for further purification. To refold this protein, samples containing Q7S is dialyzed into 50 mM sodium phosphate pH 7.0, 50 mM NaCl, 10 mM DTT, and 10% glycerol.
The commercially available peptide substrate (Molecular Probes Cat. # H-2930) RE(EDANS)SQNYPIVQK(DABCYL)R is used to assess activity and Ki's. This peptide is cleaved quantitatively by HIV-1 Pr at the Tyr-Pro bond. The EDANS fluorophore absorbs at 340 nm and emits at 490 nm. The reaction is carried out in a 96 well plate in a total volume of 100 μL and is run for 12 minutes at 37 C under steady-state conditions with 5 μM substrate and 2 nM active dimer enzyme concentration. The literature value Km for this substrate and enzyme is 103+/−8 μM (See Matayoshi, et al., “Novel Fluorogenic Substrates for Assaying Retroviral Proteases by Resonance Energy Transfer,” Science 247, 954 (1990)). The buffer for this reaction is 0.1M sodium acetate pH 4.8, 1M NaCl, 1 mM EDTA, 5 mM dithiothreitol, 10% dimethyl sulfoxide and 1 mg/ml bovine serum albumin. Inhibition curves are fit using the Morrison tight binding equation.

For the next experiment, the system named is HIV-1. Kind of experiment: Cytopathic Effect (CPE) Inhibition Assay (XTT dye reduction). The format is cell-based. The settings on record: for pEC50: Human immunodeficiency virus 1; for EC50: Human immunodeficiency virus 1, 144 h, read-out: Ave CPE EC50 (mM). The method, then:
T-cell lines, CEM-SS, and MT-2, and viruses HIV-1 RF and HIV-1 NL4–3 (pNL4–3) were obtained from the National Institutes of Health (AIDS Research and Reference Reagent Program, Bethesda, Md.).
The ability of compounds to protect cells against HIV infection was measured by the […] dye reduction method, essentially as described (See Pauwels, R. Balzarini, J. Baba, M. Snoeck, R. Schols, D. Herdewijn, P. Desmyter, J. and De Clercq, E. 1988, “Rapid and automated tetrazolium-based colorimetric assay for the detection of anti-HIV compounds,”. J Virol Methods., 20: 309–321 and Weislow, O. S. Kiser, R. Fine, D. L. Bader, J. Shoemaker, R. H. and Boyd, M. R. 1989. “New soluble-formazan assay for HIV-1 cytopathic effects: application to high-flux screening of synthetic and natural products for AIDS-antiviral activity”. J. Natl. Cancer Inst. 81:577–586). Subject cells were infected with test virus at an moi of 0.025 to 0.819 or mock infected with medium only and added at 2×10^4 cells per well into 96 well plates containing half-log dilutions of test compounds. Six days later, 50 μl of XTT (1 mg/ml XTT tetrazolium, […] phenazine methosulfate) was added to the wells and the plate was reincubated for four hours. Viability, as determined by the amount of XTT formazan produced, was quantified spectrophotometrically by absorbance at 450 nm. Data from CPE assays were expressed as the percent of formazan produced in compound-treated cells compared to formazan produced in wells of uninfected, compound-free cells. The fifty percent effective concentration (EC50) was calculated as the concentration of compound that effected an increase in the percentage of formazan production in infected, compound-treated cells to 50% of that produced by uninfected, compound-free cells. The 50% cytotoxicity concentration (CC50) was calculated as the concentration of compound that decreased the percentage of formazan produced in uninfected, compound-treated cells to 50% of that produced in uninfected, compound-free cells. The therapeutic index was calculated by dividing the cytotoxicity (CC50) by the antiviral activity (EC50).
Background: Protection from cytopathic effect is a common read-out in antiviral testing.

By pKi is commonly meant the negative decadic logarithm of the Ki, by convention in mol/L. A word on the pEC50: it is the EC50 on a negative log10 scale, so that one unit is a factor of ten. The low end stands for a high EC50, the high end for a low EC50. On HIV-1 protease (Q7S), `Cc1ccc(C(=O)N[C@@H](Cc2ccccc2)[C@H](O)C(=O)N2CSC(C)(C)[C@H]2C(=O)CCC(F)(F)F)c(C)c1O` had a pKi of 8.02. This compound gave a pEC50 in the experiment with HIV-1 of 6.14.

A word on the Ki: it is the equilibrium dissociation constant of an inhibitor or competing ligand from its target. The low end stands for a stronger hold on the target, the high end for a looser hold on the target. By EC50 is commonly meant the concentration at which the effect is half-maximal. With `C=CCNC(=O)[C@H]1N(C(=O)[C@@H](O)[C@H](Cc2ccccc2)NC(=O)c2ccc(C)c(O)c2C)CSC1(C)C` [Example B20, (R)-3-((2S,3S)-2-Hydroxy-3-{[1-(3-hydroxy-2,4-dimethyl-phenyl)-methanoyl]-amino}-4-phenyl-butanoyl)-5,5-dimethyl-thiazolidine-4-carboxylic acid allylamide], on HIV-1 protease (Q7S), the Ki stood at 2.1 nM. Further, the EC50 in the experiment on HIV-1 is 0.427 µM.

Consider `Cc1c(O)cccc1C(=O)N[C@@H](Cc1ccccc1)[C@H](O)C(=O)N1CSC(C)(C)[C@H]1C(=O)NCc1cc(F)cc(F)c1`, for which the pKi at HIV-1 protease (Q7S) is 9.44. Also, the negative logarithm of the EC50 (pEC50) in the experiment with HIV-1 is 6.84.

`Cc1ccccc1CNC(=O)C1N(C(=O)[C@@H](O)[C@H](Cc2ccccc2)NC(=O)c2cccnc2C)CSC1(C)C` (stereo partly drawn) [Example B44, N-{(1S,2S)-1-Benzyl-3-[5,5-dimethyl-4-(2-methyl-benzylcarbamoyl)-thiazolidin-3-yl]-2-hydroxy-3-oxo-propyl}-2-methyl-nicotinamide]: the affinity on HIV-1 protease (Q7S), expressed as Ki, was 0.76 nM. Further, the EC50 in the experiment with HIV-1 came out at 0.629 µM.

`C=CCNC(=O)[C@H]1N(C(=O)[C@@H](O)[C@H](Cc2ccccc2)NC(=O)[C@@H]2CCCO2)CSC1(C)C` had a pKi on HIV-1 protease (Q7S) of 7.76. Also, the pEC50 in the experiment with HIV-1 was 5.48.

On to `Cc1ccccc1CNC(=O)[C@H]1N(C(=O)[C@@H](O)[C@H](Cc2ccccc2)NC(=O)c2cccc(F)c2C)COC1(C)C` [Example C11, (S)-3-((2S,3S)-3-{[1-(3-Fluoro-2-methyl-phenyl)-methanoyl]-amino}-2-hydroxy-4-phenyl-butanoyl)-5,5-dimethyl-oxazolidine-4-carboxylic acid 2-methyl-benzylamide], for which, at HIV-1 protease (Q7S), the Ki is 1.1 nM. In addition, the EC50 in the experiment with HIV-1 was determined as 1.56 µM.

With `Cc1ccccc1CNC(=O)[C@@H]1[C@H](C)OCN1C(=O)[C@@H](O)[C@H](Cc1ccccc1)NC(=O)c1cccc(O)c1C` [Example C8, (4S,5S)-3-((2S,3S)-2-Hydroxy-3-{[1-(3-hydroxy-2-methyl-phenyl)-methanoyl]-amino}-4-phenyl-butanoyl)-5-methyl-oxazolidine-4-carboxylic acid 2-methyl-benzylamide], affinity on HIV-1 protease (Q7S) was put at a Ki of 0.26 nM. Also, in the experiment with HIV-1, the EC50 came out at 0.447 µM.

With `Cc1ccccc1CNC(=O)[C@H]1N(C(=O)[C@@H](O)[C@H](Cc2ccccc2)NC(=O)c2c(C)noc2C)CSC1(C)C` [Example B10, 3,5-Dimethyl-isoxazole-4-carboxylic acid {(1S,2S)-1-benzyl-3-[(R)-5,5-dimethyl-4-(2-methyl-benzylcarbamoyl)-thiazolidin-3-yl]-2-hydroxy-3-oxo-propyl}-amide], the Ki on HIV-1 protease (Q7S) was below 0.1 nM. Moreover, in the experiment on HIV-1, the EC50 worked out at 1.1 µM.

Regarding `Cc1ccccc1CNC(=O)[C@H]1N(C(=O)[C@@H](O)[C@H](Cc2ccccc2)NC(=O)c2csc(N)n2)CSC1(C)C`, on HIV-1 protease (Q7S), the pKi is 8.64. The pEC50 in the experiment with HIV-1 is 5.86.

`Cc1cc(C(=O)N[C@@H](Cc2ccccc2)[C@H](O)C(=O)N2CSC(C)(C)[C@H]2C(=O)NCc2ccccc2C)no1` gave a pKi on HIV-1 protease (Q7S) of 8.59. In the experiment with HIV-1, this compound gave a pEC50 of 5.88.

For `Cc1c(O)cccc1C(=O)N[C@@H](Cc1ccccc1)[C@H](O)C(=O)N1CSC(C)(C)[C@H]1C(=O)NC/C=C/C(F)(F)F` [Example A40, (R)-3-((2S,3S)-2-Hydroxy-3-{[1-(3-hydroxy-2-methyl-phenyl)-methanoyl]-amino}-4-phenyl-butanoyl)-5,5-dimethyl-thiazolidine-4-carboxylic acid ((E)-4,4,4-trifluoro-but-2-enyl)-amide], the affinity on HIV-1 protease (Q7S) corresponds to a Ki of 1.2 nM. In addition, the EC50 in the experiment with HIV-1 amounted to 0.275 µM.

`Cc1ccccc1CNC(=O)[C@H]1N(C(=O)[C@@H](O)[C@H](Cc2ccccc2)NC(=O)c2cccc(O)n2)CSC1(C)C` [Example B48] had a Ki at HIV-1 protease (Q7S) of 12 nM. Moreover, in the experiment with HIV-1, the EC50 was above 3.2 µM.

The compound `Cn1cccc1C(=O)N[C@@H](Cc1ccccc1)[C@H](O)C(=O)N1CSC(C)(C)[C@H]1C(=O)NCc1c(F)cccc1F` [Example B24, 3-{2-Hydroxy-3-[(1-methyl-1H-pyrrole-2-carbonyl)-amino]-4-phenyl-butyryl}-5,5-dimethyl-thiazolidine-4-carboxylic acid 2,6-difluoro-benzylamide] gave a Ki on HIV-1 protease (Q7S) of 5.5 nM. In the experiment with HIV-1, the EC50 turned out to be 2.32 µM.

With `Cc1cc(C(=O)N[C@@H](Cc2ccccc2)[C@H](O)C(=O)N2CSC(C)(C)[C@H]2C(=O)NCc2ccc(Cl)cc2C)no1`, the pKi on HIV-1 protease (Q7S) is 7.55. In addition, in the experiment with HIV-1, the pEC50 is 5.38.

For `Cc1ccccc1CNC(=O)[C@@H]1C[C@H](F)CN1C(=O)[C@@H](O)[C@H](Cc1ccccc1)NC(=O)c1cccc(O)c1C` [Example C3, (2S,4S)-4-Fluoro-1-[(2S,3S)-2-hydroxy-3-(3-hydroxy-2-methyl-benzoylamino)-4-phenyl-butyryl]-pyrrolidine-2-carboxylic acid 2-methyl-benzylamide], the Ki on HIV-1 protease (Q7S) turned out to be 1.3 nM. The EC50 with HIV-1 was determined as 0.5 µM.

For the compound `COc1ccccc1C(=O)N[C@@H](Cc1ccccc1)[C@H](O)C(=O)N1CSC(C)(C)[C@H]1C(=O)NCc1ccccc1C`, the pKi at HIV-1 protease (Q7S) is 8.68. Moreover, the negative logarithm of the EC50 (pEC50) in the experiment with HIV-1 is 5.83.

Compound `Cc1cc(C(=O)N[C@@H](Cc2ccccc2)[C@H](O)C(=O)N2CSC(C)(C)[C@H]2C(=O)NCc2ccccc2C)n[nH]1` showed a pKi at HIV-1 protease (Q7S) of 7.71. The compound also had a pEC50 in the experiment with HIV-1 of 5.52.

With `C/C=C(/C)CNC(=O)[C@H]1N(C(=O)[C@@H](O)[C@H](Cc2ccccc2)NC(=O)c2cccc(O)c2C)CSC1(C)C` [Example A34, (R)-3-((2S,3S)-2-Hydroxy-3-{[1-(3-hydroxy-2-methyl-phenyl)-methanoyl]-amino}-4-phenyl-butanoyl)-5,5-dimethyl-thiazolidine-4-carboxylic acid ((Z)-2-methyl-but-2-enyl)-amide], the Ki on HIV-1 protease (Q7S) is below 0.1 nM. Moreover, in the experiment with HIV-1, the EC50 is 0.036 µM.

Regarding `Cc1c(O)cccc1C(=O)N[C@@H](Cc1ccccc1)[C@H](O)C(=O)N1CSC(C)(C)[C@H]1C(=O)NCc1ccc(C(F)(F)F)cc1F`, the pKi at HIV-1 protease (Q7S) was 7.95. In the experiment on HIV-1, this compound gave a pEC50 of 5.85.

In turn, `C/C=C\CNC(=O)[C@H]1N(C(=O)[C@@H](O)[C@H](Cc2ccccc2)NC(=O)c2cccc(O)c2C)CSC1(C)C` [Example A31, (R)-3-((2S,3S)-2-Hydroxy-3-{[1-(3-hydroxy-2-methyl-phenyl)-methanoyl]-amino}-4-phenyl-butanoyl)-5,5-dimethyl-thiazolidine-4-carboxylic acid (Z)-but-2-enylamide] registered a Ki on HIV-1 protease (Q7S) below 0.1 nM. The EC50 in the experiment with HIV-1 was 0.041 µM.

On to `Cc1ccsc1CNC(=O)[C@H]1N(C(=O)[C@@H](O)[C@H](Cc2ccccc2)NC(=O)c2cccc(O)c2C)CSC1(C)C` [Example A8], for which the Ki at HIV-1 protease (Q7S) was found to be 0.23 nM. Also, the EC50 with HIV-1 is 0.036 µM.

For `Cc1cc(Cl)ccc1CNC(=O)[C@H]1N(C(=O)[C@@H](O)[C@H](Cc2ccccc2)NC(=O)c2cccc(O)c2C)CSC1(C)C`, the pKi on HIV-1 protease (Q7S) is 9.59. In addition, the pEC50 with HIV-1 was 6.68.

Compound `CC(=O)Nc1cccc(CNC(=O)[C@H]2N(C(=O)[C@@H](O)[C@H](Cc3ccccc3)NC(=O)c3cccc(O)c3C)CSC2(C)C)c1` [Example A33, (R)-3-((2S,3S)-2-Hydroxy-3-{[1-(3-hydroxy-2-methyl-phenyl)-methanoyl]-amino}-4-phenyl-butanoyl)-5,5-dimethyl-thiazolidine-4-carboxylic acid 3-acetylamino-benzylamide] registered a Ki on HIV-1 protease (Q7S) below 0.1 nM. Further, in the experiment on HIV-1, the EC50 is 0.577 µM.
